Common to all, as to assay type: cell-based
Assay [1] has as its system Human retinal pigment epithelium cells (ARPE-19 cells). Nature of the assay: Barrier function: passage of 3,000 Dalton FITC-labeled dextran from apical to basolateral media of tBH-treated ARPE-19 cells. The conditions noted are these: 100 nM Compound A plus 100 μM tBH; dextran added at 20 hours, fluorescence at 44 hours; FIG. 2. As for the experimental part:
(§1) Human retinal pigment epithelium cells (ARPE-19 cells, purchased from American Type Culture Collection (ATCC)) were used in the study. ARPE-19 cells were grown on Corning Transwell 0.4 μm pore size filters (Corning Incorporated, NY, USA) in Dulbecco's modified Eagles medium containing 10% fetal calf serum. Trans-Epithelial Resistance (TER) of the cultured cells was determined using an EVOM volt-ohm meter. The TER of the cultured cells was determined by subtracting the resistance value measured with the filter alone from the value measured with the cultured cells.
ARPE-19 cells grown until they reached a TER of approximately 50 Ohm/1.2 cm^2 were treated with 100 μM tBH in 0.1% decane, 100 nM Compound A in DMSO (0.1% final DMSO), or a combination of tBH plus Compound A (initial treatment). At 20 hours after the initial treatment, 3,000 Dalton FITC-labeled dextran was added at a concentration of 0.1 mg/ml to the apical surface of the cell culture and the culture was further incubated. Fluorescence of the media bathing the basolateral surface was then measured at 44 hours. Wavelengths for FITC were 494 ex/518 em.

Assay [2] has the same test system. Nature of the assay: Trans-Epithelial Resistance (TER) of ARPE-19 cells treated with tert-butyl hydroperoxide (tBH). The conditions noted are these: 100 nM Compound A plus 100 μM tBH; TER at 0, 6, 18, 24 and 48 hours; FIG. 1. As for the experimental part:
as §1
The cells were grown until they reached a TER of approximately 50 Ohm/1.2 cm^2. They were then treated with 100 μM tert-butyl hydroperoxide (tBH) in 0.1% decane, 100 nM Compound A (isopropyl unoprostone, i.e. 13,14-dihydro-15-keto-20-ethyl-PGF2α isopropyl ester) in DMSO (0.1% final DMSO), or a combination of tBH plus Compound A. TER was determined at 0, 6, 18, 24 and 48 hours after the treatment.

The test system is the same in assay [3]. The assay can be described thus: Protection from light induced cell death in A2E containing RPE cells (WST-8 viability). As for the experimental part:
Protection by Compound A from light induced cell death in pyridinium bis-retinoid (A2E) containing retinal pigment epithelium (RPE) cells
Human retinal pigment epithelium cells (ARPE-19 cells) were used in the study. ARPE-19 cells were maintained in DMEM/F12 medium (supplemented with 10% FBS and 1% Penicillin-Streptomycin Mixed Sol.) in 25 cm^2 or 75 cm^2 culture flask. For the experiment, the cells were seeded on multi-well chamber slides. After confirming the cells adhered to slide, the media were changed to pyridinium bis-retinoid (A2E) containing culture medium and the cells were cultured for 5-14 days The media were changed to phosphate buffered saline (containing A2E), and then the cells were exposed to blue light (430 nm) delivered from a halogen source for 20 min. Compound A dissolved in dimethyl sulfoxide was added 1 hr before the light: exposure (the final concentration was 10 and 50 nM). After the light exposure, the cells were cultured in the DMEM/F12 medium for 24 hours. The cells were then incubated in DMEM/F12 medium containing 10% WST-8 (without A2Z) for 4 hours. Absorbance at 450 nm was measured. An increase in the absorbance is indicative of cellular viability.
Background: Tetrazolium assays rely on reduction of a dye to a coloured formazan, in cell work by metabolically active cells.

In general, viability refers to a per cent measure of how many cells are alive, often set against a control. Take `CCCCCCCC(=O)CC[C@@H]1[C@@H](C/C=C\CCCC(=O)OC(C)C)[C@@H](O)C[C@H]1O` [Compound A, 13,14-dihydro-15-keto-20-ethyl-PGF2α isopropyl ester]: the “Effect on the loss of barrier function caused by tBH (passage of 3,000 Dalton fluorescent dextran)” value in assay [1] was “protected against the loss of barrier function caused by tBH”. Moreover, the “Effect on the loss of TER caused by tBH” value in assay [2] is listed as “protected against the loss of TER caused by tBH”. Further, in assay [3] (10 and 50 nM, A2E + blue light exposure), the “Effect on cell death induced by A2E/light exposure” value is on record as “prevented cell death induced by A2E/light exposure”. For the same compound, the viability at 0.01 µM in assay [3] (Homo sapiens, ARPE-19, 10 nM, A2E + light exposure (430 nm, 20 min), compound added 1 hr before light, WST-8 after 24 hours) was 90%. In addition, the viability at 0.05 µM in assay [3] (Homo sapiens, ARPE-19, 50 nM, A2E + light exposure (430 nm, 20 min), compound added 1 hr before light, WST-8 after 24 hours) came out at 89%.

The values are drawn from patent publication US8609729B2, “Method for treating macular degeneration” (Sucampo AG, priority 2009, dated 2013).
